Experimental data reported in patent US20210228771A1, “BIOLOGIC MATERIAL COMPRISING A CROSSLINKED STRUCTURAL PROTEIN AND MACROPHAGES SEEDED ON THE CROSSLINKED STRUCTURAL PROTEIN” (CASE WESTERN RESERVE UNIVERSITY, priority 2020, published 2021).

Assays:
M0 macrophages = assay: Western blot (arginase-1) of M0 macrophages with direct addition of genipin to culture medium; assay type: cell-based, rat; settings: for arginase-1 expression in genipin treated M0 (M0-GE): 12.5 μg/ml genipin added directly to culture medium, versus cytokine induced M2
From the text: 7b. […] A second set of experiments included the following groups: 1) Tissue culture plate with M0-polarization medium, 2) Tissue culture plate with M1-polarization medium, 3) Tissue culture plate with M2-polarization medium, 4) Tissue culture plate with M0-polarization medium with direct addition of genipin, 5) M0 subtype cells seeded on uncrosslinked collagen threads, 6) M0 subtype cells seeded on genipin crosslinked collagen threads. In this design, Groups 1-3 constitute the positive controls. […] Comparison of group 5 with group 6 determines how genipin crosslinking of collagen affect the polarization status of M0 subtype. For group 4, genipin (Wako Pure Chemical Industries, catalog #078-03021, Richmond, Va.) in 0.1% dimethyl sulfoxide (DMSO, Sigma-Aldrich, USA) (12.5 μg/ml, genipin/DMSO) was directly added to the culture medium. […] Total cell lysate was prepared using RIPA lysis buffer (#50195822), phenylmethylsulfonylfluoride (PMSF) (#NC0417414) and protease/phosphatase inhibitor (#50193743) purchased from Cell Signaling Technology. The protein concentration in the cell lysate was estimated using DC protein assay (BioRad) and 25 μg protein was resolved using 4-20% Mini-PROTEAN gels (#4561094, BioRad) and transferred to a nitrocellulose membrane (#1620213, BioRad). The membrane was blocked in 5% non-fat dry milk/1% Tween 20 for 2 hr at room temperature. They were incubated with primary antibodies anti-Arg1 for M2 (sc-271430), anti-iNOS for M1 (sc-7271), pSTAT6 (#9361S), PPAR-gamma (sc-7273) and anti-GAPDH (sc-365062) as the housekeeping protein overnight at 4° C. Following day, the blots were washed in TBST and incubated with anti-mouse secondary antibody (sc-516102) conjugated with horseradish peroxidase detected by ECL-chemiluminescence, then underwent autoradiography using BioBlue-Lite™ film (Alkali Scientific, FL). Quantitative analysis of the protein bands was performed using the Image J.

pSTAT6 and PPAR-γ = assay: Western blot of signaling pathways in genipin induced M2 polarization; assay type: cell-based, rat; settings: genipin treated M0 (M0-GE)
Method: 7c. Investigation of signaling pathways involved in M2 polarization by genipin: A third set of experiments included the following groups: 1) Tissue culture plate with M2-polarization medium, 2) Tissue culture plate with M0-polarization medium with direct addition of genipin, 3) Tissue culture plate with M0-polarization medium. In this design, Groups 1 and 3 represent the positive and negative controls. Total cell lysate was prepared using RIPA lysis buffer (#50195822), phenylmethylsulfonylfluoride (PMSF) (#NC0417414) and protease/phosphatase inhibitor (#50193743) purchased from Cell Signaling Technology. The protein concentration in the cell lysate was estimated using DC protein assay (BioRad) and 25 μg protein was resolved using 4-20% Mini-PROTEAN gels (#4561094, BioRad) and transferred to a nitrocellulose membrane (#1620213, BioRad). The membrane was blocked in 5% non-fat dry milk/1% Tween 20 for 2 hr at room temperature. […] Following day, the blots were washed in TBST and incubated with anti-mouse secondary antibody (sc-516102) conjugated with horseradish peroxidase detected by ECL-chemiluminescence, then underwent autoradiography using BioBlue-Lite™ film (Alkali Scientific, FL). Quantitative analysis of the protein bands was performed using the Image J.

[1] = 12.5 μg/ml; cited from earlier work
[2] = tested on: LPS-stimulated RAW 264.7 murine macrophages cell line; settings: cited from earlier work
human endothelial cells = settings: cited from earlier work
[3] = tested on: LPS-stimulated microglia cells derived from rat brain; settings: cited from earlier work

Structure (SMILES): COC(=O)C1=CO[C@@H](O)[C@@H]2C(CO)=CC[C@H]12 [genipin]
- arginase-1 expression in genipin treated M0 (M0-GE) (M0 macrophages): higher than for the M2 subtype induced with standard cytokines
- arginase-1 expression in genipin treated M0 (M0-GE) (M0 macrophages; listed as soluble genipin): moderately greater than a potent cytokine
- increase in Arg1 expression, soluble genipin compared to genipin presented via crosslinked collagen (M0 macrophages; M0GE vs. M0GES): approximately 3 fold
- pSTAT6 expression (pSTAT6 and PPAR-γ): significantly higher compared to M2 polarization induced by IL-4
- toxicity of genipin concentration [1]: subtoxic
- TNF-α and IL-6 (pro-inflammatory markers) [2]: suppress
- TNF-α-induced VCAM-1 expression (human endothelial cells): suppress
- IL-10 and TNF-α production [3]: leads to IL-10 and TNF-α production
